Test results: ChEMBL document CHEMBL1201862, “PubChem BioAssay data set” (2004)
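Interpolation was linear, between the two tested concentrations surrounding the appropriate level; five concentrations were tested over 48 hours in 96-well plates. GI50 marks 50% less growth.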 Active and inactive are the calls of the source. Rule as the data show it: active = GI50 up to about 1.1 µM and inactive = higher.

Key:
Assay in all cases: NCI anticancer screen, dose series, 48 h
A549 = test system: A549
HOP-62 = test system: HOP-62
IGROV-1 = test system: IGROV-1
KM12 = test system: KM12
LXFL 529 = test system: LXFL 529
RPMI-8226 = test system: RPMI-8226
RXF 393 = test system: RXF 393
SF-295 = test system: SF-295
SK-MEL-5 = test system: SK-MEL-5
SK-OV-3 = test system: SK-OV-3
SN12C = test system: SN12C
SNB-19 = test system: SNB-19
SNB-75 = test system: SNB-75
UACC-257 = test system: UACC-257
UO-31 = test system: UO-31
M14 = test system: M14

Measured: GI50

O=C(CCN1CCCCC1CCO)Nc1ccc2c(c1)C(=O)c1ccc(NC(=O)CCN3CCCCC3CCO)cc1C2=O (configuration not stated)
inactive: A549 16.7 µM | HOP-62 4.35 µM | IGROV-1 4.9 µM | KM12 2.54 µM | LXFL 529 2.32 µM | RPMI-8226 4.45 µM | RXF 393 2.12 µM | SF-295 16.7 µM | SK-MEL-5 9.4 µM | SK-OV-3 5.12 µM | SN12C 3.67 µM | SNB-19 6.07 µM | SNB-75 2.81 µM | UACC-257 5.33 µM | UO-31 > 100 µM

CC(C)(C)c1ccccc1NS(=O)(=O)c1ccccc1
inactive: A549 59.8 µM | HOP-62 > 100 µM | IGROV-1 > 100 µM | KM12 65 µM | LXFL 529 > 100 µM | M14 96.2 µM | RPMI-8226 60.8 µM | RXF 393 76.7 µM | SF-295 86.1 µM | SK-MEL-5 42.4 µM | SK-OV-3 > 100 µM | SN12C 62.4 µM | SNB-75 > 100 µM | UACC-257 45.1 µM | UO-31 30.1 µM

Nc1nc(-c2ccco2)cc(-c2ccco2)n1
inactive: A549 > 100 µM | HOP-62 > 100 µM | IGROV-1 > 100 µM | KM12 > 100 µM | LXFL 529 > 100 µM | M14 > 100 µM | RPMI-8226 > 100 µM | RXF 393 > 100 µM | SF-295 > 100 µM | SK-MEL-5 > 100 µM | SN12C > 100 µM | SNB-19 41.8 µM | SNB-75 64.1 µM | UO-31 42.7 µM

Cn1ncnc1CCc1ccccc1
inactive: A549 > 100 µM | HOP-62 > 100 µM | IGROV-1 > 100 µM | KM12 > 100 µM | LXFL 529 > 100 µM | M14 > 100 µM | RPMI-8226 > 100 µM | RXF 393 > 100 µM | SF-295 > 100 µM | SK-MEL-5 > 100 µM | SK-OV-3 > 100 µM | SN12C > 100 µM | SNB-75 > 100 µM | UACC-257 > 100 µM | UO-31 > 100 µM

CCC(C)CNC1=C(NC(C)=O)C(=O)c2ccccc2C1=O (configuration not stated)
inactive: A549 > 100 µM | HOP-62 > 100 µM | IGROV-1 > 100 µM | KM12 > 100 µM | LXFL 529 > 100 µM | M14 > 100 µM | RXF 393 > 100 µM | SF-295 > 100 µM | SK-MEL-5 31.6 µM | SK-OV-3 > 100 µM | SN12C > 100 µM | SNB-19 > 100 µM | SNB-75 > 100 µM | UACC-257 > 100 µM | UO-31 > 100 µM

COc1ccc(C2S/C(=C\c3cccc(O)c3)C(=O)N2NC(=O)Cc2ccccc2)cc1 (configuration not stated)
inactive: A549 > 100 µM | HOP-62 > 100 µM | IGROV-1 > 100 µM | KM12 > 100 µM | LXFL 529 > 100 µM | M14 > 100 µM | RPMI-8226 > 100 µM | RXF 393 12 µM | SF-295 > 100 µM | SK-MEL-5 > 100 µM | SK-OV-3 > 100 µM | SN12C > 100 µM | SNB-75 > 100 µM | UACC-257 > 100 µM | UO-31 > 100 µM

CN(C)c1ccc(/C=C(\C#N)C(=O)c2ccccc2)cc1Br
inactive: A549 > 100 µM | HOP-62 20.8 µM | KM12 > 100 µM | LXFL 529 > 100 µM | M14 > 100 µM | RPMI-8226 25.8 µM | RXF 393 14.6 µM | SF-295 > 100 µM | SK-MEL-5 96.2 µM | SK-OV-3 > 100 µM | SN12C > 100 µM | SNB-19 > 100 µM | SNB-75 41.8 µM | UACC-257 > 100 µM | UO-31 > 100 µM

CN(C)C(=O)c1ccc([N+](=O)[O-])cc1
inactive: A549 > 100 µM | HOP-62 > 100 µM | IGROV-1 > 100 µM | KM12 > 100 µM | LXFL 529 > 100 µM | M14 > 100 µM | RXF 393 > 100 µM | SF-295 > 100 µM | SK-MEL-5 > 100 µM | SK-OV-3 > 100 µM | SN12C > 100 µM | SNB-19 > 100 µM | SNB-75 > 100 µM | UACC-257 > 100 µM | UO-31 > 100 µM

C[C@@H]1C[C@]2(C[C@@H](C)C3[C@@H](CC4(C)[C@@H]5CCC6C(C)(C)OC(=O)C=C[C@]67C[C@@]5(CC[C@]34C)OO7)O2)OC1=O (some centres not stated)
inactive: A549 > 100 µM | IGROV-1 56.2 µM | LXFL 529 31.6 µM | M14 48.1 µM | RPMI-8226 > 100 µM | RXF 393 > 100 µM | SF-295 36 µM | SK-MEL-5 37.9 µM | SK-OV-3 43.6 µM | SN12C > 100 µM | SNB-19 49.4 µM | SNB-75 18.4 µM | UACC-257 55.2 µM | UO-31 51.8 µM

Oc1c2c(nc3cc4c(cc13)OCO4)-c1ccccc1CC2
inactive: A549 > 100 µM | HOP-62 > 100 µM | IGROV-1 > 100 µM | LXFL 529 > 100 µM | M14 > 100 µM | RPMI-8226 > 100 µM | RXF 393 78 µM | SF-295 > 100 µM | SK-MEL-5 > 100 µM | SN12C > 100 µM | SNB-19 > 100 µM | SNB-75 23.6 µM | UACC-257 > 100 µM | UO-31 > 100 µM
